{"source": "ChEMBL document CHEMBL1817595", "about": "“Design, synthesis, biological evaluation and X-ray crystal structure of novel classical 6,5,6-tricyclic benzo[4,5]thieno[2,3-d]pyrimidines as dual thymidylate synthase and dihydrofolate reductase inhibitors” (Bioorg Med Chem, 2011)"}
{"target": "T1, Thymidylate synthase (Homo sapiens, UniProt P04818)", "test": "Inhibition of human TS assessed as oxidation of tetrahydrofolate to dihydrofolate after 2 to 12 mins by spectrophotometry", "units": {"IC50": "nM"}}
{"smiles": "Cc1nc2sc3cccc(CNc4ccc5c(c4)CN([C@@H](CCC(=O)O)C(=O)O)C5=O)c3c2c(=O)[nH]1", "IC50": 800}
{"smiles": "Cc1nc2sc3cccc(CNc4ccc(C(=O)N[C@@H](CCC(=O)O)C(=O)O)cc4)c3c2c(=O)[nH]1", "IC50": 260}
{"smiles": "Nc1nc2sc3cccc(CNc4ccc(C(=O)N[C@@H](CCC(=O)O)C(=O)O)cc4)c3c2c(=O)[nH]1", "IC50": 68}
{"smiles": "Nc1nc2sc3cccc(CNc4ccc5c(c4)CN([C@@H](CCC(=O)O)C(=O)O)C5=O)c3c2c(=O)[nH]1", "IC50": 34}
{"target": "T2, Thymidylate synthase (EC 2.1.1.45) (TS) (TSase) (Escherichia coli, UniProt E2QDN0)", "T2 sequence (E2QDN0 whole entry)": "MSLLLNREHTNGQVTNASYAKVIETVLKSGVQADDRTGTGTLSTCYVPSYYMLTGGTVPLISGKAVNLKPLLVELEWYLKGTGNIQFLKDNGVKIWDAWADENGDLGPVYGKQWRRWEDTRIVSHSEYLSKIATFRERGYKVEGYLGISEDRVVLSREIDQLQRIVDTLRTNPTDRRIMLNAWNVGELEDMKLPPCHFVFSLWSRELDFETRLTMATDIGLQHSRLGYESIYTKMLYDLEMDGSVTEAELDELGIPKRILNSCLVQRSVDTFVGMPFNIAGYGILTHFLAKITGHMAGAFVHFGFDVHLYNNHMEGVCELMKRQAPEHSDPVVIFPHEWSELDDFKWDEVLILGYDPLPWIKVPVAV", "test": "Inhibition of Escherichia coli TS assessed as oxidation of tetrahydrofolate to dihydrofolate after 2 to 12 mins by spectrophotometry", "units": {"IC50": "nM"}}
{"smiles": "Cc1nc2sc3cccc(CNc4ccc5c(c4)CN([C@@H](CCC(=O)O)C(=O)O)C5=O)c3c2c(=O)[nH]1", "IC50": 850}
{"smiles": "Cc1nc2sc3cccc(CNc4ccc(C(=O)N[C@@H](CCC(=O)O)C(=O)O)cc4)c3c2c(=O)[nH]1", "IC50": 820}
{"smiles": "Nc1nc2sc3cccc(CNc4ccc(C(=O)N[C@@H](CCC(=O)O)C(=O)O)cc4)c3c2c(=O)[nH]1", "IC50": 17}
{"smiles": "Nc1nc2sc3cccc(CNc4ccc5c(c4)CN([C@@H](CCC(=O)O)C(=O)O)C5=O)c3c2c(=O)[nH]1", "IC50": 50}
{"smiles": "Cc1nc2ccc3ccc(CNc4ccc5c(c4)CN([C@@H](CCC(=O)O)C(=O)O)C5=O)cc3c2c(=O)[nH]1", "note": "[OSI-7904]", "IC50": 23}
{"smiles": "Nc1nc2[nH]cc(CCc3ccc(C(=O)N[C@@H](CCC(=O)O)C(=O)O)cc3)c2c(=O)[nH]1", "note": "[PEMETREXED]", "IC50": 76000}
{"target": "T3, Bifunctional dihydrofolate reductase-thymidylate synthase (Toxoplasma gondii, UniProt Q07422)", "T3 sequence (Q07422 whole entry)": "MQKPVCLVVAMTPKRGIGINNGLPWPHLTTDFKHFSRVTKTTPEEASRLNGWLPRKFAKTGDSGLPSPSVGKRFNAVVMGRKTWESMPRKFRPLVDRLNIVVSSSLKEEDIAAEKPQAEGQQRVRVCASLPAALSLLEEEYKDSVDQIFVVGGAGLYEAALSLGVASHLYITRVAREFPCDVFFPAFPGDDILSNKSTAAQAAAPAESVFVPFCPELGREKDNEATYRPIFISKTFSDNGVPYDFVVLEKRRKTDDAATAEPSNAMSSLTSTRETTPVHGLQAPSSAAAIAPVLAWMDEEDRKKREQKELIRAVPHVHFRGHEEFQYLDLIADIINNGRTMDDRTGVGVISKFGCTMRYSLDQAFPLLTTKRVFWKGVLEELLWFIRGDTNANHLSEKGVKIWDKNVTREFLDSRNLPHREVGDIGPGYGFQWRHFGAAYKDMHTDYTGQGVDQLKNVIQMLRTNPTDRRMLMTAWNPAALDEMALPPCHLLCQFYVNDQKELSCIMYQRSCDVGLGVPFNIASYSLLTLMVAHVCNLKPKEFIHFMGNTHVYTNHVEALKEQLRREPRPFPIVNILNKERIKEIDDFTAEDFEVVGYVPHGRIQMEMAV", "test": "Inhibition of Toxoplasma gondii TS assessed as oxidation of tetrahydrofolate to dihydrofolate after 2 to 12 mins by spectrophotometry", "units": {"IC50": "nM"}}
{"smiles": "Cc1nc2sc3cccc(CNc4ccc5c(c4)CN([C@@H](CCC(=O)O)C(=O)O)C5=O)c3c2c(=O)[nH]1", "IC50": 3700}
{"smiles": "Cc1nc2sc3cccc(CNc4ccc(C(=O)N[C@@H](CCC(=O)O)C(=O)O)cc4)c3c2c(=O)[nH]1", "IC50": 1700}
{"smiles": "Nc1nc2sc3cccc(CNc4ccc(C(=O)N[C@@H](CCC(=O)O)C(=O)O)cc4)c3c2c(=O)[nH]1", "IC50": 140}
{"smiles": "Nc1nc2sc3cccc(CNc4ccc5c(c4)CN([C@@H](CCC(=O)O)C(=O)O)C5=O)c3c2c(=O)[nH]1", "IC50": 170}
{"smiles": "Cc1[nH]c2nc(N)[nH]c(=O)c2c1Sc1ccc(C(=O)N[C@@H](CCC(=O)O)C(=O)O)cc1", "IC50": 90}
{"smiles": "Cc1nc2ccc3ccc(CNc4ccc5c(c4)CN([C@@H](CCC(=O)O)C(=O)O)C5=O)cc3c2c(=O)[nH]1", "note": "[OSI-7904]", "IC50": 27}
{"target": "T4, Dihydrofolate reductase (Homo sapiens, UniProt P00374)", "T4 sequence (P00374 whole entry)": "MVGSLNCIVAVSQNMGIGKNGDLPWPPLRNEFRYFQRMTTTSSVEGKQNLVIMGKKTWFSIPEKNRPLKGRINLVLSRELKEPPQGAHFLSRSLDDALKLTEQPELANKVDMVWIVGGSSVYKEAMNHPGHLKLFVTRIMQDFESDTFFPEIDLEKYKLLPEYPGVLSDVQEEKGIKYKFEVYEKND", "test": "Inhibition of human DHFR by spectrophotometry", "units": {"IC50": "nM"}}
{"smiles": "Cc1nc2sc3cccc(CNc4ccc5c(c4)CN([C@@H](CCC(=O)O)C(=O)O)C5=O)c3c2c(=O)[nH]1", "IC50": "> 20000"}
{"smiles": "Cc1nc2sc3cccc(CNc4ccc(C(=O)N[C@@H](CCC(=O)O)C(=O)O)cc4)c3c2c(=O)[nH]1", "IC50": "> 20000"}
{"smiles": "Nc1nc2sc3cccc(CNc4ccc(C(=O)N[C@@H](CCC(=O)O)C(=O)O)cc4)c3c2c(=O)[nH]1", "IC50": 90}
{"smiles": "Nc1nc2sc3cccc(CNc4ccc5c(c4)CN([C@@H](CCC(=O)O)C(=O)O)C5=O)c3c2c(=O)[nH]1", "IC50": 100}
{"smiles": "Cc1nc2ccc3ccc(CNc4ccc5c(c4)CN([C@@H](CCC(=O)O)C(=O)O)C5=O)cc3c2c(=O)[nH]1", "note": "[OSI-7904]", "IC50": "> 20000"}
{"target": "T5, Dihydrofolate reductase (Escherichia coli, UniProt P0ABQ4)", "T5 sequence (P0ABQ4 whole entry)": "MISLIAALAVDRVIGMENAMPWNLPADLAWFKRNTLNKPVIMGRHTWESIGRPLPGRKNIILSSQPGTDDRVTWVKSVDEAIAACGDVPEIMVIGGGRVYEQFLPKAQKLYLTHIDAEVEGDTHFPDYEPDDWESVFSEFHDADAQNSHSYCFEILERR", "test": "Inhibition of Escherichia coli DHFR by spectrophotometry", "units": {"IC50": "nM"}}
{"smiles": "Cc1nc2sc3cccc(CNc4ccc5c(c4)CN([C@@H](CCC(=O)O)C(=O)O)C5=O)c3c2c(=O)[nH]1", "IC50": "> 20000"}
{"smiles": "Cc1nc2sc3cccc(CNc4ccc(C(=O)N[C@@H](CCC(=O)O)C(=O)O)cc4)c3c2c(=O)[nH]1", "IC50": 15000}
{"smiles": "Nc1nc2sc3cccc(CNc4ccc(C(=O)N[C@@H](CCC(=O)O)C(=O)O)cc4)c3c2c(=O)[nH]1", "IC50": 400}
{"smiles": "Nc1nc2sc3cccc(CNc4ccc5c(c4)CN([C@@H](CCC(=O)O)C(=O)O)C5=O)c3c2c(=O)[nH]1", "IC50": 400}
{"smiles": "Cc1[nH]c2nc(N)[nH]c(=O)c2c1Sc1ccc(C(=O)N[C@@H](CCC(=O)O)C(=O)O)cc1", "IC50": 22000}
{"smiles": "Cc1nc2ccc3ccc(CNc4ccc5c(c4)CN([C@@H](CCC(=O)O)C(=O)O)C5=O)cc3c2c(=O)[nH]1", "note": "[OSI-7904]", "IC50": 20000}
{"target": "T3, Bifunctional dihydrofolate reductase-thymidylate synthase", "test": "Inhibition of Toxoplasma gondii DHFR by spectrophotometry", "units": {"IC50": "nM"}}
{"smiles": "Cc1nc2sc3cccc(CNc4ccc5c(c4)CN([C@@H](CCC(=O)O)C(=O)O)C5=O)c3c2c(=O)[nH]1", "IC50": 1800}
{"smiles": "Cc1nc2sc3cccc(CNc4ccc(C(=O)N[C@@H](CCC(=O)O)C(=O)O)cc4)c3c2c(=O)[nH]1", "IC50": 1400}
{"smiles": "Nc1nc2sc3cccc(CNc4ccc(C(=O)N[C@@H](CCC(=O)O)C(=O)O)cc4)c3c2c(=O)[nH]1", "IC50": 20}
{"smiles": "Nc1nc2sc3cccc(CNc4ccc5c(c4)CN([C@@H](CCC(=O)O)C(=O)O)C5=O)c3c2c(=O)[nH]1", "IC50": 10}
{"smiles": "Cc1[nH]c2nc(N)[nH]c(=O)c2c1Sc1ccc(C(=O)N[C@@H](CCC(=O)O)C(=O)O)cc1", "IC50": 230}
{"smiles": "Cc1nc2ccc3ccc(CNc4ccc5c(c4)CN([C@@H](CCC(=O)O)C(=O)O)C5=O)cc3c2c(=O)[nH]1", "note": "[OSI-7904]", "IC50": 710}
{"target": "T1, Thymidylate synthase", "test": "Ratio of premetrexed IC50 to compound IC50 for human TS"}
{"smiles": "Cc1nc2sc3cccc(CNc4ccc5c(c4)CN([C@@H](CCC(=O)O)C(=O)O)C5=O)c3c2c(=O)[nH]1", "Ratio IC50": 50}
{"smiles": "Cc1nc2sc3cccc(CNc4ccc(C(=O)N[C@@H](CCC(=O)O)C(=O)O)cc4)c3c2c(=O)[nH]1", "Ratio IC50": 50}
{"smiles": "Nc1nc2sc3cccc(CNc4ccc(C(=O)N[C@@H](CCC(=O)O)C(=O)O)cc4)c3c2c(=O)[nH]1", "Ratio IC50": 50}
{"smiles": "Nc1nc2sc3cccc(CNc4ccc5c(c4)CN([C@@H](CCC(=O)O)C(=O)O)C5=O)c3c2c(=O)[nH]1", "Ratio IC50": 50}
